Measured values from patent US9506068B2, “Pain treatment using ERK2 inhibitors” (Cornell University, priority 2008, dated 2016).
Entries after “also recorded” stand apart in the source; their conditions may differ.

Legend:
[1] = system: spinal cord dorsal horn (SCDH); test: GFP immunolabeling after rAAV vector injection (extent and cell type of transduction); format: in vivo, mouse; settings: confocal fluorescent immunohistochemistry; NeuN, GFAP, OX42 markers
Method: (§1) The viral vectors, ERK2-5, 2-7, 2-8 and MM were micro-injected into the spinal cord dorsal horn (SCDH) as described by South et al. (South et al., 2003). The mice were anesthetized with ketamine/xylazine. A laminectomy was performed to remove part of the dorsal L2 and L3 spinous process and the lumbar area of spinal cord was exposed for intraparenchymal injection (IPI). Three unilateral injections of 1 μl (1-3×10^9 viral particles/μl) were administered 0.5-0.7 mm apart, at a depth of 0.3 mm from the dorsal border and 0.5 mm from the midline, using a glass pipette with a 40-μm-diameter tip attached to a 5 μl Hamilton syringe. The syringe was mounted on a microinjector (David Kopf Instruments, Tujunga, Calif.) attached to a stereotaxic unit (David Kopf Instruments). After the injection, the overlying muscles were closed with 5-0 chromic gut and the skins were closed with wound clips. Animals were allowed to recover for three weeks before undergoing behavioral tests, or sacrificed for histological and Western blot analysis.
(§2) Fluorescent IHC images were captured by a Zeiss LSM 510 laser scanning confocal microscope. […] Quantitative analysis was performed by a blinded observer using Metamorph software (Universal Imaging, Downingtown, Pa.) as described previously (Garraway et al., 2007). […]

C57BL/6 mice [2] = test: Motor function tests (surface righting, placing/stepping, grasping/climbing); format: in vivo, mouse; settings: after intraparenchymal injection of vector
Method: All behavioral testing was conducted in groups of 10 mice per treatment by a blinded observer. Motor function tests were performed before mechanical stimulus threshold or thermal paw withdrawal threshold were measured (Garraway et al., 2007). No deficits in reflexes for surface righting, placing/stepping and grasping/climbing were found in animals treated with either the control rAAV vector or rAAV viral vectors.

C57BL/6 mice [3] = test: Acute mechanical stimulus threshold (von Frey); format: in vivo, mouse; settings: before vs. at least 3 weeks after vector administration, no CFA
Method: Mechanical stimulus threshold to a non-noxious mechanical stimulus was determined by paw withdrawal to the application of a series of calibrated von Frey filaments to the surface of the hind paws. The animals were placed in a Plexiglas cage with mesh flooring suspended above the researcher and left to acclimate for 30 min. von Frey filaments were applied perpendicularly against the mid-plantar surface of the foot. The “up-down” method of Dixon (Chaplan et al., 1994) was used to determine the value at which paw withdrawal occurred 50% of the time, interpreted as the mechanical threshold.

ERK2 mRNA = test: Non-radioactive in situ hybridization of ERK2 mRNA in spinal cord dorsal horn after intraparenchymal vector injection; format: in vivo, mouse; settings: 3 weeks after intraparenchymal injection; ipsilateral vs contralateral; listed as MM
Method: as §1, with “Animals were allowed to recover for three weeks before undergoing behavioral tests, or sacrificed for histological and Western blot analysis.” left out
ERK2 mRNA expression in the SCDH was detected by non-radioactive in situ hybridization as described by (Garraway et al., 2007). […]
as §2

[4] = system: fusion mRNA of the ERK2 and the humanized Renilla luciferase (hRluc) gene; test: psiCHECK Dual Luciferase Reporter Assay; format: cell-based, mouse; settings: HEK 293 cells cotransfected with psiCHECK plasmid and rAAV plasmid; normalized to 100% of rAAV plasmid lacking shRNA (GFP); n=4
Source text: FIGS. 1A-J illustrate expression of green fluorescent protein (GFP) and the knockdown of ERK2 mRNA in the mouse spinal cord dorsal horn (SCDH) at 3 weeks after the intraparenchymal injection of a neurotropic recombinant adeno-associated virus (rAAV) vector expressing ERK2 siRNA. […] Thus, the expression of GFP was not influenced by co-expression of the ERK2 siRNAs. […] Scale bar, 500 μm. In FIG. 1I, ERK2 mRNA expression was quantified from in situ images and plotted in the bar graph as the ratio of the integrated optical density of in situ labeling in the ipsilateral SCDH to that in the contralateral SCDH. Data are the mean±SEM (n=3). […] There was no significant difference in the ratio among the three active siRNA vectors. […] HEK 293 cells were cotransfected with the psiCHECK plasmid (which contains the ERK2-Renilla luciferase fusion gene and the firefly luciferase gene) and with a rAAV plasmid expressing a candidate ERK2 shRNA sequence. rAAV plasmids that yield active siRNAs reduce the expression of Renilla luciferase relative to firefly luciferase, leading to a reduction of the activity ratio. The assay results are the mean±SEM (n=4). The Renilla/firefly signal was normalized to a value of 100% from the results of a concurrent assay containing psiCHECK and a rAAV plasmid that lacked coding for a shRNA sequence (GFP). […]

ERK1 [5] = test: Western blot of spinal cord dorsal horn: ERK1 and pERK1; format: in vivo, mouse; settings: compared to animals that did not receive intraparenchymal injection of a vector
Method: (§3) The viral vectors, ERK2-5, 2-7, 2-8 and MM were micro-injected into the spinal cord dorsal horn (SCDH) as described by South et al. (South et al., 2003). The mice were anesthetized with ketamine/xylazine. A laminectomy was performed to remove part of the dorsal L2 and L3 spinous process and the lumbar area of spinal cord was exposed for intraparenchymal injection (IPI). Three unilateral injections of 1 μl (1-3×10^9 viral particles/μl) were administered 0.5-0.7 mm apart, at a depth of 0.3 mm from the dorsal border and 0.5 mm from the midline, using a glass pipette with a 40-μm-diameter tip attached to a 5 μl Hamilton syringe. […]
(§4) Animals were deeply anesthetized by isoflurane, decapitated and the lumbar spinal cord dorsal horn at the level of L4-L6 were rapidly dissected. […] The protein level of each sample was measured by the BioRad DC assay. […]
(§5) Membranes were incubated with rabbit anti-pERK1/2 antibody (1:1000; 07-362; Cell Signaling Technology, Inc.) in blocking solution overnight at 4° C., washed in TBS with 0.1% Tween-20 (TBST), then incubated with HRP-conjugated anti-rabbit IgG (1:1000, Pierce Biotechnology, Inc., Rockford, Ill.) in blocking solution for 1 hr. […] Ratios of intensity of pERK1/2 or ERK1/2 to β-actin were calculated, normalized to the control samples and subject to statistical analysis. […]

[6] = system: spinal cord dorsal horn (SCDH); settings: mouse, in vivo
Method: Mice were anesthetized with pentobarbital and then perfused transcardially with 4% paraformaldehyde (PFA) in phosphate buffered saline (PBS) with 1 mM NaF. Fifty mL of fixative was perfused over 5 min by using a peristaltic pump. The spinal cord was dissected and placed in 4% PFA for 1 hr before being transferred to 30% sucrose for cryoprotection for 72 hr. Lumbar spinal cord cryosections of 20-μm thick were obtained from a cryostat (Leica, Bannockburn, Ill.) for IHC and in situ hybridization.
For IHC, the spinal cord sections were incubated in blocking solution (3% normal goat serum, 0.1% Triton X-100 in Tris buffered saline) for 30 min. After washing in Tris buffered saline (TBS), sections were incubated with one or two of the following primary antibodies: rabbit anti-GFP (1:1000; Invitrogen-Molecular Probes Inc, Eugene, Oreg.), rabbit anti-phospho-ERK1/2 (1:1000; Cell Signaling Technology, Inc., Danvers, Mass.), mouse anti-NeuN (1:400; Millipore-Chemicon, Bedford, Mass.), rabbit anti-c-fos (1:2000, Santa Cruz Biotechnology, Santa Cruz, Calif.), rabbit anti-Dynorphin A(1:2000, Bachem, San Carlos, Calif.), mouse anti-GFAP (1:2000; Millipore-Chemicon) and rat anti-OX42 (1:1000, BD Biosciences, San Diego, Calif.) overnight in blocking solution at 4° C. […]

C57BL/6 mice [7] = test: Acute thermal paw withdrawal threshold; format: in vivo, mouse; settings: before vs. at least 3 weeks after vector administration, no CFA
Method: Thermal paw withdrawal threshold was assessed using a thermal nociceptive stimulus apparatus (Hargreaves et al., 1988). Prior to the test, the animals were allowed to acclimate for 30 min to the test chamber on a pre-heated glass plate maintained at 30° C. A radiant thermal stimulus (5.10 amps) was applied to the mid-plantar surface of the hind paw through the glass plate. The latency, in seconds, for the withdrawal of the paw from the heat source was determined automatically. If no response was elicited, the heat source was automatically shut off at 20 sec to prevent tissue injury. A minimum break of 5 min was allowed between each trial. Three to six trials were performed for each paw.

ERK2 = test: Western blot of spinal cord dorsal horn: ERK2 and pERK2; format: in vivo, mouse; settings: compared to animals that did not receive intraparenchymal injection of a vector
Method: as §3, §4, §5

ERK1 [8] = test: Western blot of transfected HEK293 cells: ERK1; format: cell-based, human
Source text: Separate cultures of an immortalized cell line of human embryonic kidney cells (HEK293) were transfected with three active siRNAs directed against human ERK2. […] The sequences of the three human ERK2 siRNAs (#1, #2, and #3) and the control mismatch siRNA are shown below. The siRNAs were expressed from the rAAV vector. Thus, to generate the siRNA #1, the DNA sequence of the sense strand […] NO:777) was linked to a spacer derived from an miRNA […] ID NO:766) at the 3' end, which was then linked to the corresponding antisense sequence […] NO:778)). Thus, the non-template strand sequence used in the expression cassette for the […] NO:777) siRNA will have the following sequence (SEQ ID NO:779)): [NT] This sequence was placed downstream of an RNA polymerase III (RNA pol III) promoter in the rAAV vector. The vector also contained 6 consecutive dTs in the non-template strand following the SEQ ID NO:779 sequence to stop the transcription.

mm: inactive control mismatch siRNA CCUCGUCAUAAUACUGGGUUU used in HEK293 cells (chemistry not given here)
cellular localization of GFP immunolabeling [1]: colocalized with NeuN | animals with signs of motor deficits (C57BL/6 mice [2]): None | mechanical withdrawal threshold (C57BL/6 mice [3]): No change | ERK2 mRNA level in the ipsilateral SCDH (in situ hybridization) (ERK2 mRNA): did not alter; also recorded: no change | Renilla/firefly luciferase activity ratio [4]: ineffective | expression or phosphorylation of ERK1 (ERK1 [5]): did not have any effect | gliosis in the spinal cord dorsal horn [6]: no evidence of gliosis | neuronal cell loss [6]: no evidence of neuronal cell loss | heat withdrawal latency (C57BL/6 mice [7]): No change | expression or phosphorylation of ERK2 (ERK2): did not have any effect

siRNA #1: human ERK2 siRNA (1833-1851) GCAGGAGCUUGUGGAAAUAUU, expressed from the rAAV vector
ERK1 expression (ERK1 [8]): without significantly changing

siRNA #2: human ERK2 siRNA (884-902) GCUGCAUUCUGGCAGAAAUUU, expressed from the rAAV vector
ERK1 expression (ERK1 [8]): without significantly changing

siRNA #3: human ERK2 siRNA (357-375) GUGCUCUGCUUAUGAUAAUUU, expressed from the rAAV vector
ERK1 expression (ERK1 [8]): without significantly changing
